Measured values published in patent US9321762B2, “Quinazoline compounds, method for preparing the same and use thereof” (DEVELOPMENT CENTER FOR BIOTECHNOLOGY, priority 2013, dated 2016).
Like-named read-outs stand apart in the source and are kept apart here.

What was measured:
EGFR kinase = target: T1, EGFR kinase (Homo sapiens, UniProt P00533); experiment: EGFR radiometric kinase assay; format: biochemical; conditions: 100 μM ATP, read-out: Inhibition activity, IC50 EGFR
T1 construct: EGFR kinase domain alone, Millipore; purchased Millipore
Method: (§1) The inhibitory activity against VEGFR2 or EGFR was determined by radiometric kinase assay. The experimental condition for VEGFR2 kinase assay was 6.25 ng of recombinant VEGFR2 kinase (VEGFR2 kinase domain alone, Millipore), 5 μg of substrate Poly(Glu-Tyr) (4:1, Sigma), kinase reaction buffer (20 mM MOPS pH 7.0, 1 mM EDTA, 5% glycerol, 0.01% Brij-35, 0.1% β-mercaptoethanol, 1 mg/mL BSA, 100 μM ATP, and 0.1 μCi per well [^33P] ATP (specific activity 3000 Ci/mmol, PerkinElmer)), and the test compound (diluted with 4% DMSO) or DMSO alone (as a control) in a final volume of 25 μL. Reactions were incubated at 30° C. for 30 min and stopped by adding 3% phosphoric acid, harvested onto a 96-well GF/B UniFilter (PerkinElmer) using a unifilter harvester (PerkinElmer), and counted with a TopCount microplate scintillation counter (PerkinElmer).
The experimental condition for EGFR kinase assay was 25 ng of EGFR kinase (EGFR kinase domain alone, Millipore), 3 μg of the substrate poly(Glu-Tyr), (Sigma), kinase reaction buffer (10 mM MOPS pH 7.0, 0.3 mM EDTA, 0.5% glycerol, 0.001% Brij-35, 10 mM MnCl2, 0.1 mg/ml BSA, 100 μM ATP, and 0.1 μCi per well [^33P]ATP (specific activity 3000 Ci/mmol, PerkinElmer)), and the test compound (diluted with 4% DMSO) or DMSO (as a control) in a final volume of 25 μL. Reactions were incubated at 30° C. for 30 min and stopped by adding 3% phosphoric acid, harvested onto a 96-well GF/B UniFilter (PerkinElmer) using a unifilter harvester (PerkinElmer), and counted with a TopCount microplate scintillation counter (PerkinElmer).
(§2) Results of inhibition activity against VEGFR2 and EGFR kinases by the selected compounds, which have IC50 values on B-Raf kinase <300 nM, are summarized in Table 6.

B-Raf kinase = target: T2, B-Raf kinase (Homo sapiens, UniProt P15056); experiment: B-Raf kinase assay ([33P] incorporation into MEK1(K97R)); format: biochemical; conditions: class symbols; 8 μM ATP; read-out: IC50 against B-Raf kinase
T2 construct: purchased Upstate Biotechnology
Method: (§3) Inhibition of kinase activity by a test compound disclosed herein was estimated by quantifying the amount of [^33P] incorporation of a substrate in the presence of the test compound. Standard assay conditions were 5 ng of recombinant B-Raf kinase (Upstate Biotechnology) with 500 ng MEK1(K97R) in assay buffer (8 μM ATP, 0.5 μCi [^33P]ATP (specific activity 3000 Ci/mmol, PerkinElmer), 50 mM Tris/HCl (pH7.5), and 1 mM EGTA, 1 mM Na3VO4, 1% 2-mercaptoethanol, 0.1% Brij 35, and 0.2 mg/ml BSA) in a final volume of 25 μL. Reactions were incubated at 30° C. for 30 min and stopped by adding 3% phosphoric acid, harvested onto a 96-well GF/B UniFilter (PerkinElmer) using a unifilter harvester (PerkinElmer), and counted with a TopCount microplate scintillation counter (PerkinElmer). The IC50 values of inhibitors were determined after carrying out assays at 3-fold serially diluted concentrations of each compound in duplication. The results were analyzed using linear regression software (GraphPad Prism 4; GraphPad Software Inc.).

B-Raf(V600E) kinase = target: T3, B-Raf(V600E) kinase (Homo sapiens, UniProt P15056, V600E); experiment: B-Raf(V600E) kinase assay ([33P] incorporation into MEK1(K97R)); format: biochemical; conditions: class symbols; 8 μM ATP; read-out: IC50 against B-Raf(V600E) kinase
T3 construct: purchased Upstate Biotechnology
Method: as §3, with “B-Raf(V600E)” for “B-Raf”, “MEK1 (K97R)” for “MEK1(K97R)”, “[^33P] ATP” for “[^33P]ATP”, “BSA), and the test compound (diluted with 4% DMSO) or DMSO alone (as a control)” for “BSA)”

VEGFR2 kinase = target: T4, VEGFR2 kinase (Homo sapiens, UniProt P35968); experiment: VEGFR2 radiometric kinase assay; format: biochemical; conditions: given as bound; 100 μM ATP; read-out: Inhibition activity, IC50 VEGFR2
T4 construct: VEGFR2 kinase domain alone, Millipore; purchased Millipore
Method: as §1, §2

C-Raf kinase = target: T5, C-Raf kinase (Homo sapiens, UniProt P04049); experiment: C-Raf kinase assay ([33P] incorporation into MEK1(K97R)); format: biochemical; conditions: class symbols; 8 μM ATP; read-out: IC50 against C-Raf kinase
T5 construct: purchased Upstate Biotechnology
Method: as §3, with “were 2” for “were 5”, “recombinant C-Raf” for “recombinant B-Raf”, “ng MEK1 (K97R)” for “ng MEK1(K97R)”, “μCi [^33P] ATP” for “μCi [^33P]ATP”, “mg/ml BSA), and the test compound (diluted with 4% DMSO) or DMSO alone (as a control)” for “mg/ml BSA)”

[1] = tested on: A375 melanoma cells and COLO205 colon cancer cells; experiment: Cell proliferation assay (CellTiter-96); format: cell-based; conditions: Homo sapiens; A375 or COLO205, 72 hours treatment; read-out: Cytotoxicity IC50 for A375 or COLO205
Method: The anti-proliferative activities of compounds of formula (I) against B-Raf(V600E) mutant human cancer cell lines, A375 melanoma cells and COLO205 colon cancer cells, were measured using the CellTiter™-96 assay kit (Promega) following the manufacturer's instructions. In brief, the cells were maintained in DMEM containing 10% FCS and incubated at 37° C. in 5% CO2 atmosphere. Cells were plated at a density of 2,000 cells/well on a 96-well plate and incubated for 24 h. Then, these cells were treated with different concentrations of the test compounds and incubated for another 72 hours. At the end of the incubation, CellTiter™-96 Aqueous One Solution Reagent (Promega) was added and incubated for another 4.0 hours. Cell viability was determined by measuring absorbance at 490 nm using EMax® microplate reader (Molecular Devices). Data were processed and analyzed using GraphPad Prism.

T5 sequence (P04049 whole entry): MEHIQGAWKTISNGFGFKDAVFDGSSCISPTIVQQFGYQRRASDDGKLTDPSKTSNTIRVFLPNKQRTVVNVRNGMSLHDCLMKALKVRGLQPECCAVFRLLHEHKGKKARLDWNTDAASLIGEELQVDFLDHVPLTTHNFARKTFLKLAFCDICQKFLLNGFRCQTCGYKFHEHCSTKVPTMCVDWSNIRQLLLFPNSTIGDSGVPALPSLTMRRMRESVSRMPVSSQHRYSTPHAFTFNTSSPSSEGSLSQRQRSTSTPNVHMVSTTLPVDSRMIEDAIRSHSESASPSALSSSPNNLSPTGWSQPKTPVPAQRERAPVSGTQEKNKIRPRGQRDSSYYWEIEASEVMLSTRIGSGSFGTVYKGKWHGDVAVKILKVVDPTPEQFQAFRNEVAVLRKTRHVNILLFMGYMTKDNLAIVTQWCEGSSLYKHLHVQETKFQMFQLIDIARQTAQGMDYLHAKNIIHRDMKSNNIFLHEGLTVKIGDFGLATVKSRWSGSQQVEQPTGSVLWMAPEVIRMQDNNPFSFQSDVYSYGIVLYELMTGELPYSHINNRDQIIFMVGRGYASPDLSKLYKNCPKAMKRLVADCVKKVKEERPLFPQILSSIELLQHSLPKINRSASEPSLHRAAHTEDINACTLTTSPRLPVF
T3 sequence (P15056 whole entry V600E): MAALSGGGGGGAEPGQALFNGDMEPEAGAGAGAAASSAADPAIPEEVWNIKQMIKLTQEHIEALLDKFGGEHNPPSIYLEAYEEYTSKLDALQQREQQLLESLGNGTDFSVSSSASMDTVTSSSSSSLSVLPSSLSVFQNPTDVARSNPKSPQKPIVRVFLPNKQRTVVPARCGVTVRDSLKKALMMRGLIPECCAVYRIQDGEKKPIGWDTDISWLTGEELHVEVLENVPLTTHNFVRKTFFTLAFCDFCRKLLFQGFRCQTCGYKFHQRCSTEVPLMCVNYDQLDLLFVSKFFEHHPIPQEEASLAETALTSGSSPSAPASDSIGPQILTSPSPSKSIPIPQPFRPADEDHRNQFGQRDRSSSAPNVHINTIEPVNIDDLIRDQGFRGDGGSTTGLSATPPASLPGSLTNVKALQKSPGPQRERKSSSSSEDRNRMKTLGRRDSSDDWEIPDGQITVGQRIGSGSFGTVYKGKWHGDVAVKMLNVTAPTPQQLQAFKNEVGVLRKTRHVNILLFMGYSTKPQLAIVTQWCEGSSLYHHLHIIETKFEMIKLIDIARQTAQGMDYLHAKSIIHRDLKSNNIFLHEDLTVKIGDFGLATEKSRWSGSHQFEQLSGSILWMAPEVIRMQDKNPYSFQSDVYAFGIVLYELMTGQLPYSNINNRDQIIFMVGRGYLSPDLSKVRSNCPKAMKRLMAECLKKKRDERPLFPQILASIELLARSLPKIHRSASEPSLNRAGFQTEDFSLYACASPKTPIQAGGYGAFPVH
T1 sequence (P00533 712-979 limits assumed): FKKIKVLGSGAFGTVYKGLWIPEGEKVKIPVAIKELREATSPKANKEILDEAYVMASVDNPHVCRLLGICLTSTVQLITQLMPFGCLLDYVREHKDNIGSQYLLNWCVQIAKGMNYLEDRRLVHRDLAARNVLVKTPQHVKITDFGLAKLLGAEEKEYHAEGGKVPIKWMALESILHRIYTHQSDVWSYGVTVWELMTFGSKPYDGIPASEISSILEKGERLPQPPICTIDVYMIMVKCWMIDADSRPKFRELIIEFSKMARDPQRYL
T4 sequence (P35968 834-1162 limits assumed): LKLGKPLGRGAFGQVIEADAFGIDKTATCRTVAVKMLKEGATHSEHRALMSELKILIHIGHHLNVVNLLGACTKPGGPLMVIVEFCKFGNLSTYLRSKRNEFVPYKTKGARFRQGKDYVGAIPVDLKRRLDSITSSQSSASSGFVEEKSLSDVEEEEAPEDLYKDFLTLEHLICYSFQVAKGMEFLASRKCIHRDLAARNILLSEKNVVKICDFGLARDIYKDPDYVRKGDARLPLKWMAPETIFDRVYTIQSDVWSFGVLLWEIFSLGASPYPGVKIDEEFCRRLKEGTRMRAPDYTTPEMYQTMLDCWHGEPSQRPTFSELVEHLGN
T2 sequence (P15056 whole entry): as the sequence (P15056 whole entry V600E) above, with E600V counted along it

| IC50 (EGFR kinase; given as bound) | IC50 (B-Raf kinase) | IC50 (B-Raf(V600E) kinase) | IC50 (VEGFR2 kinase) | IC50 (C-Raf kinase) | IC50 (EGFR kinase; class symbols) | Structure (SMILES) | IC50 [1] |
| --- | --- | --- | --- | --- | --- | --- | --- |
| > 3000 nM | < 300 nM | < 300 nM | > 3000 nM | < 300 nM | – | CCCS(=O)(=O)Nc1ccc(F)c(Nc2ccnc3ccc(-c4cccnc4F)cc23)c1F [compound 13, N-(2,4-difluoro-3-(6-(2-fluoropyridin-3-yl)-quinolin-4-ylamino)phenyl)propane-1-sulfonamide] | < 2000 nM |
| – | < 300 nM | < 300 nM | > 3000 nM | < 300 nM | 1000 to 3000 nM | O=S(=O)(Nc1ccc(F)c(Nc2ncnc3ccc(-c4cccnc4F)cc23)c1F)c1ccccc1 [compound 21, N-(2,4-difluoro-3-(6-(2-fluoropyridin-3-yl)quinazolin-4-ylamino)phenyl)benzenesulfonamide] | < 2000 nM |
| > 3000 nM | < 300 nM | < 300 nM | > 3000 nM | 300 to 1000 nM | – | CCCS(=O)(=O)Nc1ccc(F)c(Nc2ncnc3ccc(-c4ccc(=O)[nH]c4)cc23)c1F [compound 32, N-(2,4-difluoro-3-(6-(6-oxo-1,6-dihydropyridin-3-yl)quinazolin-4-ylamino)phenyl)propane-1-sulfonamide] | < 2000 nM |
| > 3000 nM | < 300 nM | < 300 nM | > 3000 nM | < 300 nM | – | CCCS(=O)(=O)Nc1ccc(F)c(Nc2ccnc3ccc(-c4ccnc(F)c4)cc23)c1F [compound 25, N-(2,4-difluoro-3-(6-(2-fluoropyridin-4-yl)quinolin-4-ylamino)phenyl)propane-1-sulfonamide] | < 2000 nM |
| > 3000 nM | < 300 nM | < 300 nM | > 3000 nM | < 300 nM | – | CCCS(=O)(=O)Nc1ccc(F)c(Nc2ncnc3ccc(-c4ccc(F)nc4)cc23)c1F [compound 3, N-(2,4-difluoro-3-(6-(6-fluoropyridin-3-yl)-quinazolin-4-ylamino)phenyl)propane-1-sulfonamide] | < 2000 nM |
| – | < 300 nM | < 300 nM | > 3000 nM | 300 to 1000 nM | 1000 to 3000 nM | CCCS(=O)(=O)Nc1ccc(F)c(Nc2ncnc3ccc(-c4ccnc(F)c4)cc23)c1F [compound 24, N-(2,4-difluoro-3-(6-(2-fluoropyridin-4-yl)quinazolin-4-ylamino)phenyl)propane-1-sulfonamide] | < 2000 nM |
| – | < 300 nM | < 300 nM | > 3000 nM | 300 to 1000 nM | 300 to 1000 nM | CCCS(=O)(=O)Nc1ccc(F)c(Nc2ncnc3ccc(-c4cccc(OC)n4)cc23)c1F [compound 37, N-(2,4-difluoro-3-(6-(6-methoxypyridin-2-yl)quinazolin-4-ylamino)phenyl)propane-1-sulfonamide] | < 2000 nM |
| – | < 300 nM | < 300 nM | > 3000 nM | < 300 nM | 300 to 1000 nM | CCCS(=O)(=O)Nc1ccc(F)c(Nc2ncnc3ccc(-c4cccc(C#N)n4)cc23)c1F [compound 63, N-(3-(6-(6-cyanopyridin-2-yl)quinazolin-4-ylamino)-2,4-difluorophenyl)propane-1-sulfonamide] | < 2000 nM |
| > 3000 nM | < 300 nM | < 300 nM | > 3000 nM | < 300 nM | – | CCCS(=O)(=O)Nc1ccc(F)c(Nc2ncnc3ccc(-c4cccnc4F)cc23)c1F [compound 1, N-(2,4-difluoro-3-(6-(2-fluoropyridin-3-yl)quinazolin-4-ylamino)phenyl)propane-1-sulfonamide] | < 2000 nM |
| > 3000 nM | < 300 nM | < 300 nM | > 3000 nM | < 300 nM | – | CCCS(=O)(=O)Nc1ccc(F)c(Nc2ncnc3ccc(-c4cnccc4F)cc23)c1F [compound 66, N-(2,4-difluoro-3-(6-(4-fluoropyridin-3-yl)quinazolin-4-ylamino)phenyl)propane-1-sulfonamide] | < 2000 nM |
| – | < 300 nM | < 300 nM | > 3000 nM | < 300 nM | 1000 to 3000 nM | CCCS(=O)(=O)Nc1ccc(F)c(Nc2ccnc3ccc(-c4ccncc4)cc23)c1F [compound 14, N-(2,4-difluoro-3-(6-(pyridin-4-yl)quinolin-4-ylamino)phenyl)propane-1-sulfonamide] | < 2000 nM |
| – | < 300 nM | < 300 nM | > 3000 nM | 300 to 1000 nM | 1000 to 3000 nM | CCCS(=O)(=O)Nc1ccc(F)c(Nc2ncnc3ccc(-c4cccc(F)n4)cc23)c1F [compound 36, N-(2,4-difluoro-3-(6-(6-fluoropyridin-2-yl)-quinazolin-4-ylamino)phenyl)propane-1-sulfonamide] | < 2000 nM |
